Reference: ChEMBL document CHEMBL3045218, “Synthesis and Fungicidal Activities of Some 1-Aryloxyaceto-3-(5-aryl-1, 3, 4-oxadiazol-2-yl) thioureas and Corresponding Oxadiazolo [3, 2-a]-s-triazines” (1990)

What was measured:
Format in all cases: functional
Bipolaris oryzae [1] = experiment: Antifungal activity against Bipolaris oryzae assessed as fungus colony inhibition at 100 ppm measured after 96 hr by agar dilution method
Aspergillus niger [2] = experiment: Antifungal activity against Aspergillus niger assessed as fungus colony inhibition at 10 ppm measured after 96 hr by agar dilution method
Bipolaris oryzae [3] = experiment: Antifungal activity against Bipolaris oryzae assessed as fungus colony inhibition at 10 ppm measured after 96 hr by agar dilution method
Bipolaris oryzae [4] = experiment: Antifungal activity against Bipolaris oryzae assessed as fungus colony inhibition at 1000 ppm measured after 96 hr by agar dilution method
Aspergillus niger [5] = experiment: Antifungal activity against Aspergillus niger assessed as fungus colony inhibition at 100 ppm measured after 96 hr by agar dilution method
Aspergillus niger [6] = experiment: Antifungal activity against Aspergillus niger assessed as fungus colony inhibition at 1000 ppm measured after 96 hr by agar dilution method

| SMILES | inhibition at 100 ppm (Bipolaris oryzae [1]) [%] | inhibition at 10 ppm (Aspergillus niger [2]) [%] | inhibition at 10 ppm (Bipolaris oryzae [3]) [%] | inhibition at 1000 ppm (Bipolaris oryzae [4]) [%] | inhibition at 100 ppm (Aspergillus niger [5]) [%] | inhibition at 1000 ppm (Aspergillus niger [6]) [%] |
| --- | --- | --- | --- | --- | --- | --- |
| COc1ccc(-c2nn3c(COc4cc(C)ccc4C(C)C)nc(=S)nc3o2)cc1 | 64.8 | 52.6 | 52.3 | 80.2 | 66.4 | 82.5 |
| Cc1ccc(C(C)C)c(OCc2nc(=S)nc3oc(-c4ccccc4)nn23)c1 | 60.4 | 48.2 | 48.6 | 74.8 | 62.1 | 78.6 |
| COc1ccc(-c2nn3c(COc4ccc([N+](=O)[O-])cc4)nc(=S)nc3o2)cc1 | 60.5 | 41.5 | 48.5 | 77.9 | 58.5 | 75.8 |
| O=[N+]([O-])c1ccc(OCc2nc(=S)nc3oc(-c4ccccc4)nn23)cc1 | 56.2 | 40.7 | 41.5 | 73.4 | 53.3 | 71.2 |
| O=[N+]([O-])c1ccccc1OCc1nc(=S)nc2oc(-c3ccccc3)nn12 | 55.4 | 40.3 | 40.2 | 74.4 | 52.2 | 70.2 |
| COc1ccc(-c2nn3c(COc4ccc(C)cc4)nc(=S)nc3o2)cc1 | 40.5 | 32.6 | 30.9 | 60.8 | 42.7 | 62.3 |
| Cc1ccc(OCc2nc(=S)nc3oc(-c4ccccc4)nn23)cc1 | 52.5 | 40.9 | 40.3 | 72.6 | 56.7 | 75.3 |
| COc1ccc(-c2nn3c(COc4cccc(C)c4)nc(=S)nc3o2)cc1 | 40.2 | 32 | 30.4 | 60.3 | 42.3 | 62.5 |
| Cc1cccc(OCc2nc(=S)nc3oc(-c4ccccc4)nn23)c1 | 53.2 | 41.5 | 36.7 | 72.5 | 57.3 | 76.2 |
| COc1ccc(-c2nnc(NC(=S)NC(=O)COc3cc(C)ccc3C(C)C)o2)cc1 | 50.9 | 46.3 | 40.2 | 70.8 | 61.6 | 72.4 |
| Cc1ccc(C(C)C)c(OCC(=O)NC(=S)Nc2nnc(-c3ccccc3)o2)c1 | 45.3 | 33.7 | 31.8 | 66.6 | 48.2 | 69.3 |
| COc1ccc(-c2nnc(NC(=S)NC(=O)COc3ccc([N+](=O)[O-])cc3)o2)cc1 | 61.6 | 50.2 | 47.4 | 75.2 | 64.1 | 78.7 |
| O=C(COc1ccc([N+](=O)[O-])cc1)NC(=S)Nc1nnc(-c2ccccc2)o1 | 64.7 | 54.3 | 50.8 | 81.2 | 67.9 | 85.2 |
| O=C(COc1ccccc1[N+](=O)[O-])NC(=S)Nc1nnc(-c2ccccc2)o1 | 65.4 | 54.8 | 51.6 | 80.2 | 68.4 | 85.6 |
| COc1ccc(-c2nnc(NC(=S)NC(=O)COc3ccc(C)cc3)o2)cc1 | 55.6 | 39.2 | 38.5 | 75.3 | 56.9 | 76.3 |
| Cc1ccc(OCC(=O)NC(=S)Nc2nnc(-c3ccccc3)o2)cc1 | 50.8 | 35.8 | 37.2 | 70.1 | 52.6 | 72.2 |
| COc1ccc(-c2nnc(NC(=S)NC(=O)COc3cccc(C)c3)o2)cc1 | 56.4 | 39.4 | 40.5 | 75.6 | 55.3 | 77.2 |
| Cc1cccc(OCC(=O)NC(=S)Nc2nnc(-c3ccccc3)o2)c1 | 50.4 | 34.7 | 36.6 | 69.8 | 50.2 | 71.3 |
